Holding throughout (test): biochemical
Holding throughout (type): biochemical

Test [1] has as its target 363 human kinases (including Aurora A/B/C) (Homo sapiens, UniProt P17948). The following applies: FLT1/VEGFR1, [ATP] 2.5 µM; for remaining activity at 0.5 µM / remaining activity at 0.1 µM: read-out: % Enzyme Activity (relative to DMSO controls); for remaining activity at 0.1 µM: 100 nM.
Excerpt: (§1) However, the Aurora A/B selectivity ratios derived from our in vitro and in vivo data can be compared to prioritize inhibitors.
For test [2], the target named is T1, 363 human kinases (including Aurora A/B/C) (Homo sapiens, UniProt P45985).
T1 sequence (P45985 1-399): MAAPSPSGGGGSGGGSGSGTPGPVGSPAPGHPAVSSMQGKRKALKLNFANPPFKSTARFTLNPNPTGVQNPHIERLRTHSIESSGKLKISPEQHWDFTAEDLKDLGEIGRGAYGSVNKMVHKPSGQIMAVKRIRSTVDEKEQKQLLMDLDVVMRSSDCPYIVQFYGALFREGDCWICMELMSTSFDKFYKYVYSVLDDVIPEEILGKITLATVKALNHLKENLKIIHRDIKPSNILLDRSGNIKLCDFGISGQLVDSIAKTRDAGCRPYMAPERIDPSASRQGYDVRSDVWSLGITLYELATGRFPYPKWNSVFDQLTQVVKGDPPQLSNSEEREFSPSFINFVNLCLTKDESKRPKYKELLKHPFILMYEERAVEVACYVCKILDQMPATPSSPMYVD
The settings on record: MKK4; for remaining activity at 0.5 µM / remaining activity at 0.1 µM: read-out: % Enzyme Activity (relative to DMSO controls); for remaining activity at 0.1 µM: 100 nM.
Excerpt: as §1

Test [3] has as its target 363 human kinases (including Aurora A/B/C) (Homo sapiens, UniProt P49674). The following applies: CK1epsilon, [ATP] 50 µM; for remaining activity at 0.5 µM / remaining activity at 0.1 µM: read-out: % Enzyme Activity (relative to DMSO controls); for remaining activity at 0.1 µM: 100 nM.
Excerpt: as §1
Test [4] addresses 363 human kinases (including Aurora A/B/C) (Homo sapiens, UniProt Q9H2X6). The following applies: HIPK2; for remaining activity at 0.5 µM / remaining activity at 0.1 µM: read-out: % Enzyme Activity (relative to DMSO controls); for remaining activity at 0.1 µM: 100 nM.
Excerpt: as §1
Test [5] addresses 363 human kinases (including Aurora A/B/C) (Homo sapiens, UniProt P51617). The settings on record: IRAK1; for remaining activity at 0.5 µM / remaining activity at 0.1 µM: read-out: % Enzyme Activity (relative to DMSO controls); for remaining activity at 0.1 µM: 100 nM.
Excerpt: as §1
Test [6] concerns the target 363 human kinases (including Aurora A/B/C) (Homo sapiens, UniProt Q9BYT3). The settings on record: STK33; for remaining activity at 0.5 µM / remaining activity at 0.1 µM: read-out: % Enzyme Activity (relative to DMSO controls); for remaining activity at 0.1 µM: 100 nM.
Excerpt: as §1
The target of test [7] is T2, 363 human kinases (including Aurora A/B/C) (Homo sapiens, UniProt Q99683).
T2 sequence (Q99683 1-1374): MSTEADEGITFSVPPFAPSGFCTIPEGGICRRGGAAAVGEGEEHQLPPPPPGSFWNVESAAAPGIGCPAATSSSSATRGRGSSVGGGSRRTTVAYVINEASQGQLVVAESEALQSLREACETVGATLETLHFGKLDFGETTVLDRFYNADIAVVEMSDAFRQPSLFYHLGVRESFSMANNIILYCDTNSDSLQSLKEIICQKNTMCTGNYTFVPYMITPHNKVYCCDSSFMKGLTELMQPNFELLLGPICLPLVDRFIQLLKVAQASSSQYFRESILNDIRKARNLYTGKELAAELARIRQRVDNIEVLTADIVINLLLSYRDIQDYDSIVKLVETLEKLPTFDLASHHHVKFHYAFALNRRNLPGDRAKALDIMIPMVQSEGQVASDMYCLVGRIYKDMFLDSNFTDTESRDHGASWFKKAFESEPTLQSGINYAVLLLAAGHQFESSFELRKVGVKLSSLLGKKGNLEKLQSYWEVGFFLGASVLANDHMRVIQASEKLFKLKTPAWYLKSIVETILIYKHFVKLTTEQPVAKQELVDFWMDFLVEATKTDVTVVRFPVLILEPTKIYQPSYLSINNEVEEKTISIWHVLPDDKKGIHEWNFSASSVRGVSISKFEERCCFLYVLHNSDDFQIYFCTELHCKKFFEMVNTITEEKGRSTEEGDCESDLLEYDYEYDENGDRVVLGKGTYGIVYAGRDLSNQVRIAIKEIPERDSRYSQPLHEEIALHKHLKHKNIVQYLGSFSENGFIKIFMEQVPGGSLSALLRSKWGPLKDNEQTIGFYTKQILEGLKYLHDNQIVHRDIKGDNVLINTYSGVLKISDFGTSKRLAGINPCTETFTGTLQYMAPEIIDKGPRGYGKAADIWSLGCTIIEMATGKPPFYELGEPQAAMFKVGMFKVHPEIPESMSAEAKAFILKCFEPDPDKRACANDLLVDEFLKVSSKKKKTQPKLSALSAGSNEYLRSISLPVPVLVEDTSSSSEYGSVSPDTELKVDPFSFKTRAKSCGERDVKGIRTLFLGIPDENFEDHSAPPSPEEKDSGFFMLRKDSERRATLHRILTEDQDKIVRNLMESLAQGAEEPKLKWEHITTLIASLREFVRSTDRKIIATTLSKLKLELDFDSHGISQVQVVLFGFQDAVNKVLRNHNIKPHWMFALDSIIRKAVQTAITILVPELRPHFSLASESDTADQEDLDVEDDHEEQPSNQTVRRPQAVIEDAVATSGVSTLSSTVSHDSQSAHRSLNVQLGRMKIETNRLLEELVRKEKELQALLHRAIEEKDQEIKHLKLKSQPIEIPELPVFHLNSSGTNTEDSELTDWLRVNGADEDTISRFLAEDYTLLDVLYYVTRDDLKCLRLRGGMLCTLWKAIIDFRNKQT
The settings on record: ASK1/MAP3K5, [ATP] 100 µM; for remaining activity at 0.5 µM / remaining activity at 0.1 µM: read-out: % Enzyme Activity (relative to DMSO controls); for remaining activity at 0.1 µM: 100 nM.
Excerpt: as §1

For test [8], the target named is 363 human kinases (including Aurora A/B/C) (Homo sapiens, UniProt Q00536). The settings on record: CDK16/cyclin Y (PCTAIRE), [ATP] 15 µM; for remaining activity at 0.5 µM / remaining activity at 0.1 µM: read-out: % Enzyme Activity (relative to DMSO controls); for remaining activity at 0.1 µM: 100 nM.
Excerpt: as §1
The target of test [9] is T3, 363 human kinases (including Aurora A/B/C) (Homo sapiens, UniProt Q9UEE5).
T3 sequence (Q9UEE5 1-414): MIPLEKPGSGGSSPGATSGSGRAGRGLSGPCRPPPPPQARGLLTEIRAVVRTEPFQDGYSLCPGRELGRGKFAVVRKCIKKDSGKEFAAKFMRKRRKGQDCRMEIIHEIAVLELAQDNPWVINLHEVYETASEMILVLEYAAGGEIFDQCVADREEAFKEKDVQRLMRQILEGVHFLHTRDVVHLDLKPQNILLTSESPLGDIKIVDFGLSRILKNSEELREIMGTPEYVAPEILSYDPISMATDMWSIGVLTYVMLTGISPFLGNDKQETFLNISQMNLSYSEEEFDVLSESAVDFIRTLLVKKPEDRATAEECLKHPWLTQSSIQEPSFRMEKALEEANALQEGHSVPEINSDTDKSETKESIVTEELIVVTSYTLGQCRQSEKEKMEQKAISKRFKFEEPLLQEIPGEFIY
The following applies: DRAK1/STK17A, [ATP] 30 µM; for remaining activity at 0.5 µM / remaining activity at 0.1 µM: read-out: % Enzyme Activity (relative to DMSO controls); for remaining activity at 0.1 µM: 100 nM.
Excerpt: as §1

Molecules are shown by their SMILES.

Chain of 363 human kinases (including Aurora A/B/C) (Homo sapiens, UniProt P51617) (P51617 whole entry): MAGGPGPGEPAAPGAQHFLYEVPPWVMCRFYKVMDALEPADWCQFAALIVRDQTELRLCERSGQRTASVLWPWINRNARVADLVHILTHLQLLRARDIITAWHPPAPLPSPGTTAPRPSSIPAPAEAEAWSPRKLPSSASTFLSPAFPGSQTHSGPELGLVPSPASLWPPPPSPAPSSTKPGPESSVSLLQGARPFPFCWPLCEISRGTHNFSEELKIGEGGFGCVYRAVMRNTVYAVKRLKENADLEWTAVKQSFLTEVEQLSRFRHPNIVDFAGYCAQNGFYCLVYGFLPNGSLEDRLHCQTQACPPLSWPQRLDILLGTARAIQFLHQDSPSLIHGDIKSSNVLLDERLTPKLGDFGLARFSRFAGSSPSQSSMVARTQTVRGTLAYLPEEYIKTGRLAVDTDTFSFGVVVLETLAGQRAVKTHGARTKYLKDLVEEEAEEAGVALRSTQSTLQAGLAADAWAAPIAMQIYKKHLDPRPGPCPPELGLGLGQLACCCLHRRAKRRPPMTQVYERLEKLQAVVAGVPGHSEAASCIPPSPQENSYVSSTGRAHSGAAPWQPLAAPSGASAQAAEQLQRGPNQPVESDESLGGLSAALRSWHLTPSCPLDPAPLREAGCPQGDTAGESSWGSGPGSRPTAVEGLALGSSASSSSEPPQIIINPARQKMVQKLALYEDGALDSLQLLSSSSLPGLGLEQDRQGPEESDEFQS
Chain of 363 human kinases (including Aurora A/B/C) (Homo sapiens, UniProt Q9H2X6) (Q9H2X6 whole entry): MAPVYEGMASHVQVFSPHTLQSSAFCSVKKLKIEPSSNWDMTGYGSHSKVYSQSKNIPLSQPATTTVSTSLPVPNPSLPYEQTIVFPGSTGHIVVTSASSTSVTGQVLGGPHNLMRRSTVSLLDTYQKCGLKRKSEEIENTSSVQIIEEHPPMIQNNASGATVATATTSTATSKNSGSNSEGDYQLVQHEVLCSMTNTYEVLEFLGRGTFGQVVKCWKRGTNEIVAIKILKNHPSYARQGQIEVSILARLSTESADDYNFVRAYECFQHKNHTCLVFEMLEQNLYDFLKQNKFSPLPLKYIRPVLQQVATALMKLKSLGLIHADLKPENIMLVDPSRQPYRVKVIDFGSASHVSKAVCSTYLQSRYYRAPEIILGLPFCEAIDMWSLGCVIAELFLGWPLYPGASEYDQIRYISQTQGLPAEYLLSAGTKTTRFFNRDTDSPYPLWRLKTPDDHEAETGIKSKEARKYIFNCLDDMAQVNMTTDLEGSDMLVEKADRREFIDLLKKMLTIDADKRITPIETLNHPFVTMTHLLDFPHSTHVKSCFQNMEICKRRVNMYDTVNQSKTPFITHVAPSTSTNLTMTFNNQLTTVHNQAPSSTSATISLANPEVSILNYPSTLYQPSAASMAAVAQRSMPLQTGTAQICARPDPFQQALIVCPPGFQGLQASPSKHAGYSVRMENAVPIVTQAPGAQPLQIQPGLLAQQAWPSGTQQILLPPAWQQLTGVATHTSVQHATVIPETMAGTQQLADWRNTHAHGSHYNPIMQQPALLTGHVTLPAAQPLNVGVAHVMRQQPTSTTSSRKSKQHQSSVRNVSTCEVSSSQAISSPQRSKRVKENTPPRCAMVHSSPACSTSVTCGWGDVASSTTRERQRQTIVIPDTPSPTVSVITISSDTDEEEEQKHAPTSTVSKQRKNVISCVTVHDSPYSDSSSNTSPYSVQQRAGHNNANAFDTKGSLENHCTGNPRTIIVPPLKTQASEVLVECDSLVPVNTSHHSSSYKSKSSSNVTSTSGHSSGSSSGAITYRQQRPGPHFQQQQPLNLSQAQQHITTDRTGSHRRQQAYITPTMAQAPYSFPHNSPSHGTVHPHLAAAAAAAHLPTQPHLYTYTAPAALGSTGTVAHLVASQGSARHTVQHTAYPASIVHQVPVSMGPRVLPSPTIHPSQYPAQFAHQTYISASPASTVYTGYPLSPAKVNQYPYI
Chain of 363 human kinases (including Aurora A/B/C) (Homo sapiens, UniProt Q9BYT3) (Q9BYT3 whole entry): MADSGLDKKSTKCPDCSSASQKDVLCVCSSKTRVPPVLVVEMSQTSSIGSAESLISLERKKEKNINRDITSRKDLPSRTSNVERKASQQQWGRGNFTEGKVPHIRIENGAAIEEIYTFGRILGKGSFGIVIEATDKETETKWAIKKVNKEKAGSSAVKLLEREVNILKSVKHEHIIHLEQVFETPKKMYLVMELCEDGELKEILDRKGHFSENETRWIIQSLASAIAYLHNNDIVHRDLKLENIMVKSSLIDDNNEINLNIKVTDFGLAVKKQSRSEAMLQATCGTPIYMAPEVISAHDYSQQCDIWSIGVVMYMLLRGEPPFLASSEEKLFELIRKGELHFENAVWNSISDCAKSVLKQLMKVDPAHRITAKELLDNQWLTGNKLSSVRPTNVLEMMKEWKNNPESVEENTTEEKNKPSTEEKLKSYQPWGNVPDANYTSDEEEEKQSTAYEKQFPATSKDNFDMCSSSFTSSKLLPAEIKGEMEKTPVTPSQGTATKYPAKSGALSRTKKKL
Chain of 363 human kinases (including Aurora A/B/C) (Homo sapiens, UniProt Q00536) (Q00536 whole entry): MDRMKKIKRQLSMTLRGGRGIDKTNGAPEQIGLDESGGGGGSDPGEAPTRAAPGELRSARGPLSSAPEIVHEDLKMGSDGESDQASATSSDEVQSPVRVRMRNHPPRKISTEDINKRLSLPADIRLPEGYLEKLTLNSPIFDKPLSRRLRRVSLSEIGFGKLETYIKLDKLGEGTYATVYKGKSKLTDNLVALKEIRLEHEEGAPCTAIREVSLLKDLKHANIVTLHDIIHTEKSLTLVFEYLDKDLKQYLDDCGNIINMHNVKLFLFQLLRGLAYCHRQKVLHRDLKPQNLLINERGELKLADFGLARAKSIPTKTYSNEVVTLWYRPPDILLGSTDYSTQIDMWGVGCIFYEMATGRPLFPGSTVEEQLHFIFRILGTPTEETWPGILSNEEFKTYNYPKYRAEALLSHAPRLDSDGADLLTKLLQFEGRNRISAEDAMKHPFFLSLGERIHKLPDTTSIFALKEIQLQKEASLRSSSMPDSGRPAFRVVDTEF
Chain of 363 human kinases (including Aurora A/B/C) (Homo sapiens, UniProt P17948) (P17948 27-1338): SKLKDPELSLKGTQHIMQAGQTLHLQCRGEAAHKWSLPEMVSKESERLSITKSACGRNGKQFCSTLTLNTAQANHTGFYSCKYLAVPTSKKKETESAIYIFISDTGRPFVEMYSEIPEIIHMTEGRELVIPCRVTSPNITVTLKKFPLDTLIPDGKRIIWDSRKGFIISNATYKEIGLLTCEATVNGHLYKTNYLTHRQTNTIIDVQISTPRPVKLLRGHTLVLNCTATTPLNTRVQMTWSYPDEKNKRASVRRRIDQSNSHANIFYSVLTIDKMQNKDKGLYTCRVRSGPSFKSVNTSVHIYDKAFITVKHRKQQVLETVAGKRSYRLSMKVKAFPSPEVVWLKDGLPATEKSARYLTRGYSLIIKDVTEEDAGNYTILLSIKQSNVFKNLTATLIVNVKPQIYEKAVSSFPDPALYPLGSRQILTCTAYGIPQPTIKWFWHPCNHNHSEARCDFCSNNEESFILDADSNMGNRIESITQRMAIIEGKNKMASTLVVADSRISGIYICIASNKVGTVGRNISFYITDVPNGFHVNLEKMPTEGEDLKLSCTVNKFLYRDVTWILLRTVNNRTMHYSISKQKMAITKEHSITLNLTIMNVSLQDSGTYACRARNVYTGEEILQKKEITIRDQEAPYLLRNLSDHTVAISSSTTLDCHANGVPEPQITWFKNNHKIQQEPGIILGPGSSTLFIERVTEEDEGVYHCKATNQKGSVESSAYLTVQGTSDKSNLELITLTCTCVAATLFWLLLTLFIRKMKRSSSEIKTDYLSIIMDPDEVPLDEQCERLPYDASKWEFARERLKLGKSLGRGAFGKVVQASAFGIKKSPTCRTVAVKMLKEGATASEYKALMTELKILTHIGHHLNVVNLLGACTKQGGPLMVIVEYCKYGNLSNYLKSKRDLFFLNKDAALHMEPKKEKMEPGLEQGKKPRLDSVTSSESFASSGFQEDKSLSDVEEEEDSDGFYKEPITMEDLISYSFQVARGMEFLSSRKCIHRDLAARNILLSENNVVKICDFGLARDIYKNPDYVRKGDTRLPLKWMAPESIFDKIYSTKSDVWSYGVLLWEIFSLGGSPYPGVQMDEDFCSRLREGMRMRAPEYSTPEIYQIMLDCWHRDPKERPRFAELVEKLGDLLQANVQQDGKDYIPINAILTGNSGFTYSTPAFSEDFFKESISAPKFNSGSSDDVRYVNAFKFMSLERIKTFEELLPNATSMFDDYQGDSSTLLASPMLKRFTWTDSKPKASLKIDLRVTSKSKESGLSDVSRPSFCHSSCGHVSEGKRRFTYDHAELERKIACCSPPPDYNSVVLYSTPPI
Chain of 363 human kinases (including Aurora A/B/C) (Homo sapiens, UniProt P49674) (P49674 whole entry): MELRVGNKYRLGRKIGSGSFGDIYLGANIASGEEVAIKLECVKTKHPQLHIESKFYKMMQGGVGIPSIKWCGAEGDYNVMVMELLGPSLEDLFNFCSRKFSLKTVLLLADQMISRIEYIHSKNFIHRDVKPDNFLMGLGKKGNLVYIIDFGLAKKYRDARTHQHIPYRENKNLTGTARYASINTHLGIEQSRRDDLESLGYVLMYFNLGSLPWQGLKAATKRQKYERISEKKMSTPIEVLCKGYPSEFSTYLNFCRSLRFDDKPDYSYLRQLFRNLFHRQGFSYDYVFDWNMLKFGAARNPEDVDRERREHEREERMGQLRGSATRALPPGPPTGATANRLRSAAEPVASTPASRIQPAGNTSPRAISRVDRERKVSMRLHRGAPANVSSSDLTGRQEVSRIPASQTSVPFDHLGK

For `O=C(c1cccc(Cl)c1F)N1CCN(Cc2cccc(Nc3nccs3)n2)CC1` [MK-8745], the “% Enzyme Activity (relative to DMSO controls)” value in [1] (500 nM) worked out at 90.99%; in test [2] (500 nM), 89.78%; in test [3] (500 nM), 93.98%; in test [4] (500 nM), 102.33%; in [5] (500 nM) it was 18.29%; in [6] (500 nM), 107.39%. The “% Enzyme Activity (relative to DMSO controls)” value in test [7] (500 nM) amounted to 78.24%; in test [8] (500 nM), 110.95%; in [9] (500 nM), 102.39%. In addition, the remaining activity at 0.5 µM in test [1] (500 nM) came out at 93.4%; in test [2] (500 nM) it was 90.9%; in test [3] (500 nM), 94.9%; in test [4] (500 nM), 106%; in [5] (500 nM), 19%; in test [6] (500 nM), 110%. The remaining activity at 0.5 µM was found to be 78.7% in test [7] (500 nM), 111% in test [8] (500 nM) and 104% in test [9] (500 nM).

In the case of `CCn1cc(-c2ccnc3[nH]c(-c4cccc(CN(C)C)c4)cc23)c(-c2ccc(NC(=O)N(C)C)cc2)n1` [GSK1070916], the remaining activity at 0.1 µM turned out to be 64.4% in test [1]; 90.1% in test [2]; 95.8% in test [3]; 104% in [4]; 122% in test [5]; 111% in test [6]. The remaining activity at 0.1 µM in [7] is 79.6%; in test [8] it was 107%; in test [9], 109%.

As to `O=C(O)[C@]1(Cc2cccc(Nc3nccs3)n2)CC[C@@H](Oc2cccc(Cl)c2F)CC1` [MK-5108], the remaining activity at 0.1 µM in [1] was determined as 58.4%; in [2], 95.7%; in test [3], 98.1%; in test [4], 89.2%; in [5], 5.35%; in test [6] it was 79.3%. Moreover, the remaining activity at 0.1 µM is 85.6% in [7], 83.6% in [8] and 105% in [9]. Further, the remaining activity at 0.5 µM in test [1] (500 nM) was determined as 29.5%; in [2] (500 nM), 97.7%; in [3] (500 nM), 91.5%; in test [4] (500 nM), 50%; in test [5] (500 nM), 1.01%; in [6] (500 nM) it was 70.5%. Besides, the remaining activity at 0.5 µM was found to be 73.8% in [7] (500 nM), 98% in test [8] (500 nM) and 102% in test [9] (500 nM).
